PubChem BioAssay (NCI)
Where “and” joins values, the source holds several entries; their conditions need not be identical. Identical values can stand only once.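 Step 1: Grow cells in 96-well plates. Step 2: Expose to compound for 48 hours at 5 concentrations. Step 3: Interpolate endpoints linearly; if unreached, use highest concentration. GI50: concentration for 50% inhibition of growth. The concentration for full growth arrest is given as TGI.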

What was measured:
Test in all cases: DTP human tumour cell line panel, 48 h
CCRF-CEM leukemia = tested on: CCRF-CEM leukemia
HCT-15 colon = tested on: HCT-15 colon
HS 578T breast = tested on: HS 578T breast
MDA-N = tested on: MDA-N
NCI-H522 lung = tested on: NCI-H522 lung
OVCAR-5 ovarian = tested on: OVCAR-5 ovarian
SF-268 CNS = tested on: SF-268 CNS
SK-MEL-28 melanoma = tested on: SK-MEL-28 melanoma
SN12C renal = tested on: SN12C renal
UACC-257 melanoma = tested on: UACC-257 melanoma

Structure (SMILES)	TGI (CCRF-CEM leukemia) [µM]	TGI (HCT-15 colon) [µM]	TGI (HS 578T breast) [µM]	TGI (MDA-N) [µM]	TGI (NCI-H522 lung) [µM]	TGI (OVCAR-5 ovarian) [µM]	TGI (SF-268 CNS) [µM]	TGI (SK-MEL-28 melanoma) [µM]	TGI (SN12C renal) [µM]	TGI (UACC-257 melanoma) [µM]	GI50 (CCRF-CEM leukemia)	GI50 (UACC-257 melanoma)
COc1cc2c3cc1Oc1c(OC)c(OC)cc4c1C(Cc1ccc(O)c(c1)Oc1ccc(cc1)CC3N(C)CC2)CN(C)C4 (configuration not stated)	15.6	33.9	38.9	24.5	26.2	44.8	65.6	31.9	34.7	27.1		
O=C1c2cccnc2S(=O)(=O)N1c1ccc([N+](=O)[O-])cc1	> 100	> 100	> 100	> 100	> 100	> 100	> 100	> 100	> 100	> 100		
C=C1CC(COc2ccc3c(C)c(C)c(=O)oc3c2C)(c2ccccc2)OC1=O (configuration not stated)	1.55	3.84	13	4.4	4.16	25.1	7.96	5.44	11.3	2.14		
O=c1ccn(-c2ccccn2)c(=O)n1-c1ccccn1	> 100	> 100	> 100	> 100	> 100	> 100	> 100	> 100	> 100	> 100		
CNC(=S)NNc1ncnc2c1c(-c1ccc(Cl)cc1)cn2-c1ccc(C)cc1	> 100	21	57.8	28	20.7	29	26.8	25.2	24.3	27		
O=C(OC12CC3CC(CC(C3)C1)C2)c1ccc(NCc2cc(O)ccc2O)cc1	0.723	2.29	4.41	6.56	0.237	4.59	5.69	1.62	9.22	2.98		
O=CN1CCN(C(=O)c2ccco2)C1=S	> 37.1	25.7	> 100	24.7	17.4	37.7	28.8	> 57.6	15.8	33		
O=C1CC(c2ccccc2Cl)C2(C(=O)NC(=O)NC2=O)C(c2ccccc2Cl)C1 (configuration not stated)	> 100	> 100	> 100	> 100	> 100	> 100	> 100	> 100	> 100	> 100		
COc1ccc(C2Oc3c(OC)cc(CCCO)cc3C2CO)cc1OC (configuration not stated)	> 100	> 100	> 100	> 100	> 100	> 100	> 100	> 100	> 100	> 100	37.9 µM and > 100 µM	49.9 µM and 21.9 µM
Cn1nc2c(c1N)Cc1c(nn(C)c1N)-c1ccccc1-2	> 100	> 100	> 100	> 100	> 100	> 100	> 100	> 100	> 100	> 100		
CC(=O)C1(O)CCC2(O)C3(O)CC=C4CC(O)CCC4(C)C3CC(OC(=O)c3ccc(O)cc3)C12C (configuration not stated)	> 100	> 100	> 100	> 100	> 100	> 100	> 100	> 100	> 100	> 100		
CCOc1ccc(N=Nc2ccc3cc(/C(C)=N/NC(=O)/C(C#N)=C\c4ccc(N(CCC#N)CCC#N)cc4)c(=O)oc3c2)cc1	> 10	> 10	> 10	> 10	> 10	> 10	> 10	> 10	> 10	> 10		
CCC(=O)Nc1ccc(NS(=O)(=O)c2ccc(Cl)cc2)cc1	> 100	> 100	> 100	> 100	> 100	> 100	> 100	> 100	> 100	> 100		
COCC#C[C@@]1(O)CCCCC1CC(OC)OC (some centres not stated)	> 100	> 100	> 100	> 100	82.5	> 100	> 100	> 100	> 100	> 100		
O=C1N/N=C\c2ccc(cc2)OCc2cccc(n2)COc2ccc(cc2)/C=N\NC1=O	> 25	> 25	> 25	> 25	> 25	> 25	> 25	> 25	> 25	> 25		
O=C(/C=C\Nc1ccccc1O)C(F)(F)F	> 100	> 100	> 100	> 100	> 100	> 100	> 100	> 100	> 100	> 100		
